According to paper doi:10.1101/2024.08.19.608619, “Discovery of potent SARS-CoV-2 nsp3 macrodomain inhibitors uncovers lack of translation to cellular antiviral response” (bioRxiv, 2024):
Where “and” joins values, the source holds several entries; their conditions need not be identical. Equal values may be shown once. Read-outs that look alike come from different tables or passages of the source.

What was measured:
[1] = Hepatic microsomal stability, HLM; type: in vitro ADME, human; settings: In vitro human liver microsomal stability; for perc_remaining_no_cofactor: no cofactor
[2] = In vitro mouse hepatocyte stability; type: in vitro ADME
Text: Supplement media-1.zip/Hepatocyte_Stability.csv, table | column: clint; t_half

5-HT transporter (h) = target: T1, 5-HT transporter (h) (Homo sapiens, UniProt P31645); test: In vitro CEREP profiling, 5-HT transporter (h) (antagonist radioligand); settings: test compound concentration 10 uM
T1 construct: purchased Eurofins Cerep (SafetyScreen44), recognised from the panel format
T1 sequence (P31645 whole entry): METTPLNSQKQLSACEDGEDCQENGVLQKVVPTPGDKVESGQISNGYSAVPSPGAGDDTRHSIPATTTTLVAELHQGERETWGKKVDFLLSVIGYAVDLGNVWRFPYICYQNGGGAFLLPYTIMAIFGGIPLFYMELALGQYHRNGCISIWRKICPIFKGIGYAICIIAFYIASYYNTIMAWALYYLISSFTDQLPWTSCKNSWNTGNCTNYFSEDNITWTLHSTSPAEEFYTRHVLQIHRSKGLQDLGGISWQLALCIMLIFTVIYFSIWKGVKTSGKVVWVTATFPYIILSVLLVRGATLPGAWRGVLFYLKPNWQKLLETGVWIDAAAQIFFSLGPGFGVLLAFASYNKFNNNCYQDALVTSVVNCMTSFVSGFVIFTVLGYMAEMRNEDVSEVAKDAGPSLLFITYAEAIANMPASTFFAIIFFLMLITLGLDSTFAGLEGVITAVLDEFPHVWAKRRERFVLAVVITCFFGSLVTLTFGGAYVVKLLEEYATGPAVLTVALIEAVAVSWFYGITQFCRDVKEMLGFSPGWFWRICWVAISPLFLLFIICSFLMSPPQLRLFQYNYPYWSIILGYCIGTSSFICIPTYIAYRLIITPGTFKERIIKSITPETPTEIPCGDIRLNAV
Text: (§1) Supplement media-1.zip/Safety_Panel_Profile.csv, table | column: perc_inhibition

COX1(h) = target: T2, COX1(h) (Homo sapiens, UniProt P23219); test: In vitro CEREP profiling, COX1(h); type: biochemical; settings: test compound concentration 10 uM; Enzyme and Cell-based assays
T2 construct: purchased Eurofins Cerep (SafetyScreen44), recognised from the panel format
Text: as §1

alpha2A (h) = target: T3, alpha2A (h) (Homo sapiens, UniProt P08913); test: In vitro CEREP profiling, alpha2A (h) (antagonist radioligand); type: binding; settings: test compound 10 uM
T3 construct: purchased Eurofins Cerep (SafetyScreen44), recognised from the panel format
T3 sequence (P08913 1-465): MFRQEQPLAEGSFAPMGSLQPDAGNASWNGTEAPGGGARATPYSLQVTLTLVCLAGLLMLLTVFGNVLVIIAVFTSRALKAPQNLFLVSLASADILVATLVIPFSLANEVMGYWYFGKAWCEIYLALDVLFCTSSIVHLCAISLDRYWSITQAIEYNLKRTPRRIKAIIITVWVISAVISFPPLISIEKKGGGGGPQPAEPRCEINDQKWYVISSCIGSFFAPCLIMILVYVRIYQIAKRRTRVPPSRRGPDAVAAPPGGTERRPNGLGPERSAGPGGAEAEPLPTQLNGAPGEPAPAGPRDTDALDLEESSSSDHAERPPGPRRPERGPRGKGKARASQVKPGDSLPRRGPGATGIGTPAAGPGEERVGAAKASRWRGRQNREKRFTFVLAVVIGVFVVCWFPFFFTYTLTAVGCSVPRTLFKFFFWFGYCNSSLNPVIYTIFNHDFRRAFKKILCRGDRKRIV
Text: as §1

Vero E6/TMPRSS2 = Vero E6/TMPRSS2 cytotoxicity with P-gp inhibitor; type: cell-based; settings: for perc_max_measured: highest measured response of the dose series; for perc_min_measured: lowest measured response of the dose series
Text: Supplement media-1.zip/Cytotoxicity.csv, table | column: cc10; cc50; perc_min_measured; perc_max_measured

5-HT3 (h) = target: T4, 5-HT3 (h) (Homo sapiens, UniProt P46098); test: In vitro CEREP profiling, 5-HT3 (h) (antagonist radioligand); type: binding; settings: test compound concentration 10 uM
T4 construct: purchased Eurofins Cerep (SafetyScreen44), recognised from the panel format
T4 sequence (P46098 24-478): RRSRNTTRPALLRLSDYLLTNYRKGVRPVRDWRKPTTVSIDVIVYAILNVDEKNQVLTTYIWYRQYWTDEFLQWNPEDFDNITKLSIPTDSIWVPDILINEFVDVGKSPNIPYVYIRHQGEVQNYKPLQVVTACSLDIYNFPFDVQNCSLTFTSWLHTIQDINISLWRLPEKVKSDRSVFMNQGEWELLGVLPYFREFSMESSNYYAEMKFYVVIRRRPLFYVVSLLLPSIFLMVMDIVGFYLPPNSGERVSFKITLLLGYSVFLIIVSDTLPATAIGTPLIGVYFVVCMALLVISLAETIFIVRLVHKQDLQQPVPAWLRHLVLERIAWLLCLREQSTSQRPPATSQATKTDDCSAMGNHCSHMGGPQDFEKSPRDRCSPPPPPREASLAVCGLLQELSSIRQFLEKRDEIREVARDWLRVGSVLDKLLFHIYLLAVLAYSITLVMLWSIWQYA
Text: as §1

beta2 (h) = target: T5, beta2 (h) (Homo sapiens, UniProt P07550); test: In vitro CEREP profiling, beta2 (h) (antagonist radioligand); type: binding; settings: test compound 10 uM
T5 construct: purchased Eurofins Cerep (SafetyScreen44), recognised from the panel format
T5 sequence (P07550 whole entry): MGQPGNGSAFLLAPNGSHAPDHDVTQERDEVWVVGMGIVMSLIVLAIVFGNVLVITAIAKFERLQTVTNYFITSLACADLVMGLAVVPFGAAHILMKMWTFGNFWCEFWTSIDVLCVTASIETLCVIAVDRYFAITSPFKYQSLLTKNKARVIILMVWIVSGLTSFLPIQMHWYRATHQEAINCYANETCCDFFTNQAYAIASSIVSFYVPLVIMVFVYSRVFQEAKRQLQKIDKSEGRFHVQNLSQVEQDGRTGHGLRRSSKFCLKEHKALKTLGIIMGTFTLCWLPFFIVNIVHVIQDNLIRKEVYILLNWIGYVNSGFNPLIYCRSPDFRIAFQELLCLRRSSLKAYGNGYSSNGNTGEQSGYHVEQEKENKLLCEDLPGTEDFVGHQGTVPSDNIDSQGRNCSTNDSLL
Text: as §1

M3 (h) = target: T6, M3 (h) (Homo sapiens, UniProt P20309); test: In vitro CEREP profiling, M3 (h) (antagonist radioligand); type: binding; settings: test compound concentration 10 uM
T6 construct: purchased Eurofins Cerep (SafetyScreen44), recognised from the panel format
T6 sequence (P20309 whole entry): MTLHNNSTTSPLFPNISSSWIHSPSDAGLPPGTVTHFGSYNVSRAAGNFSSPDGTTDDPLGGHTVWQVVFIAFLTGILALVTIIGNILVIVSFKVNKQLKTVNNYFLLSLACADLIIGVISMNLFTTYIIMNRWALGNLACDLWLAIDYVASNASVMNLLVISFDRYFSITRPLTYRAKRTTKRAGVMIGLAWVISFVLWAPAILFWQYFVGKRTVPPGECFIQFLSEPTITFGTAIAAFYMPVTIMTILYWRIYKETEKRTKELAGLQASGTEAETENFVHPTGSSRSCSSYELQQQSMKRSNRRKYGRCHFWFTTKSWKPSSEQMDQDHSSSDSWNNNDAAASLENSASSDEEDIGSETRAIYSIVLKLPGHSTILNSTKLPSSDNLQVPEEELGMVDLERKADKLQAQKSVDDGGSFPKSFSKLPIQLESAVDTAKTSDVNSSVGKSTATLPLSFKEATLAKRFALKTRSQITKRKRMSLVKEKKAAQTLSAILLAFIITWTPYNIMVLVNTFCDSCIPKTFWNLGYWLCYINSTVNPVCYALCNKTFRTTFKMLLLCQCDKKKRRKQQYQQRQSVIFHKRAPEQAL
Text: as §1

[3] = target: T7, N neuronal alpha4beta2 (h) (Homo sapiens, UniProt P17787+P43681); test: In vitro CEREP profiling, N neuronal alpha4beta2 (h) (agonist radioligand); type: binding; settings: test compound concentration 10 uM
T7 construct: purchased Eurofins Cerep (SafetyScreen44), recognised from the panel format
T7 sequence (P43681 29-627 limits assumed): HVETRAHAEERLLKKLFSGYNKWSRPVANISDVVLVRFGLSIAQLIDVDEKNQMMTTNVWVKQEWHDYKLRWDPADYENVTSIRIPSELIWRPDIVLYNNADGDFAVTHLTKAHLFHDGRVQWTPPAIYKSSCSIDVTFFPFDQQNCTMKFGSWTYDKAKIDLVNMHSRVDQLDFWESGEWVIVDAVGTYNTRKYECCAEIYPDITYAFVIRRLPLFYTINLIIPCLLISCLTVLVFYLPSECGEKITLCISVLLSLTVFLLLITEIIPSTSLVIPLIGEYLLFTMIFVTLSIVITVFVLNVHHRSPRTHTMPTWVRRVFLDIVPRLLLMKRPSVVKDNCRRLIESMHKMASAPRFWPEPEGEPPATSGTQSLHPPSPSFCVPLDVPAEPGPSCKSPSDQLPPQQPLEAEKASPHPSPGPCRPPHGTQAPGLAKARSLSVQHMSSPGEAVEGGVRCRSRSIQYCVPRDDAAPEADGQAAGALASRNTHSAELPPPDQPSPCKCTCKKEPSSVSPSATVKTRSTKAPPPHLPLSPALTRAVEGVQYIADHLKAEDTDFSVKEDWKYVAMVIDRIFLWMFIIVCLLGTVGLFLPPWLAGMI
T7 sequence (P17787 26-502): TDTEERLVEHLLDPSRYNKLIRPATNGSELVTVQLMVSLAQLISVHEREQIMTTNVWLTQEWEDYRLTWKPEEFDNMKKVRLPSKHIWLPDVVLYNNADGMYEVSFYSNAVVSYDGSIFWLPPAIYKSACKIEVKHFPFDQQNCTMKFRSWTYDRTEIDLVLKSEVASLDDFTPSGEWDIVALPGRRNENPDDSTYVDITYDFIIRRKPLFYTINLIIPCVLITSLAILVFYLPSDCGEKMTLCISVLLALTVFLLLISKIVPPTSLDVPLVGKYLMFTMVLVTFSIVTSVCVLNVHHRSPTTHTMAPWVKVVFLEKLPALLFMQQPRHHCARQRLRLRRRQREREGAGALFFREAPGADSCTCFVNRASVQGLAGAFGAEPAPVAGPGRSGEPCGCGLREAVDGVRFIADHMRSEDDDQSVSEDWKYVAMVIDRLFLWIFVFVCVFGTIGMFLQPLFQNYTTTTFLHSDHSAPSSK
Text: as §1

acetylcholinesterase (h) = target: T8, acetylcholinesterase (h) (Homo sapiens, UniProt P22303); test: In vitro CEREP profiling, acetylcholinesterase (h); type: biochemical; settings: test compound concentration 10 uM; Enzyme and Cell-based assays
T8 construct: purchased Eurofins Cerep (SafetyScreen44), recognised from the panel format
T8 sequence (P22303 32-614): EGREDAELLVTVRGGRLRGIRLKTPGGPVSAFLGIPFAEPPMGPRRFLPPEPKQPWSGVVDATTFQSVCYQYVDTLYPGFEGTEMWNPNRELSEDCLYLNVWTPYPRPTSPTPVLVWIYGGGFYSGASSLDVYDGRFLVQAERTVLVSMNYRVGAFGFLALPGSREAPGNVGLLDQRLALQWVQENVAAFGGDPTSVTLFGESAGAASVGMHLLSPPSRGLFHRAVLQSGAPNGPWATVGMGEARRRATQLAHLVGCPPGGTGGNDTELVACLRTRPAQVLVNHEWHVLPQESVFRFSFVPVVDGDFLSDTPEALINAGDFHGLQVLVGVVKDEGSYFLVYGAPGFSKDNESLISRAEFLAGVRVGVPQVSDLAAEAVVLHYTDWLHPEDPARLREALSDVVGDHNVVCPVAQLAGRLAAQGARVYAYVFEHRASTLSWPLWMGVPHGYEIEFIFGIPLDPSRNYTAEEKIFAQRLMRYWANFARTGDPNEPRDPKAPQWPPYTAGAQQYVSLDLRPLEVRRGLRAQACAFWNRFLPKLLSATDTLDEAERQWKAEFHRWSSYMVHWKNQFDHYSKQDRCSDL
Text: as §1

[4] = target: T9, Potassium Channel hERG (human) (Homo sapiens, UniProt Q12809); test: In vitro CEREP profiling, Potassium Channel hERG (human)- [3H] Dofetilide; type: binding; settings: test compound concentration 10 uM
T9 construct: purchased Eurofins Cerep (SafetyScreen44), recognised from the panel format
Text: as §1

HeLa-ACE2 cells = settings: for perc_max_measured: highest measured response of the dose series; for perc_min_measured: lowest measured response of the dose series
D1 (h) = target: T10, D1 (h) (Homo sapiens, UniProt P21728); test: In vitro CEREP profiling, D1 (h) (antagonist radioligand); type: binding; settings: test compound 10 uM
T10 construct: purchased Eurofins Cerep (SafetyScreen44), recognised from the panel format
T10 sequence (P21728 whole entry): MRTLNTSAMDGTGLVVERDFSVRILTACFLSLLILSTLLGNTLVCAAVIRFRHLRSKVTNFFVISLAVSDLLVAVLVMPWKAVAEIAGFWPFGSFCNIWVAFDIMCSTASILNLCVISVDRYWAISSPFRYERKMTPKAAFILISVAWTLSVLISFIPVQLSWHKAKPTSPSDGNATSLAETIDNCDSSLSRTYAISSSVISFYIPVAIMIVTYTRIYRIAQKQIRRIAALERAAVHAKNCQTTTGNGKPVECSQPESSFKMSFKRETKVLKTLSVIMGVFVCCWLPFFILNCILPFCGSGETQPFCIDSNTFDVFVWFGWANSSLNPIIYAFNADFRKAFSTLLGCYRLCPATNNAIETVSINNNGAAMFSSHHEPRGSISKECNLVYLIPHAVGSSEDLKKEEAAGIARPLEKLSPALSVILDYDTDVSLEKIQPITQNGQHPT
Text: as §1

5-HT1B (h) = target: T11, 5-HT1B (h) (Homo sapiens, UniProt P28222); test: In vitro CEREP profiling, 5-HT1B (h) (antagonist radioligand); type: binding; settings: test compound concentration 10 uM
T11 construct: purchased Eurofins Cerep (SafetyScreen44), recognised from the panel format
T11 sequence (P28222 whole entry): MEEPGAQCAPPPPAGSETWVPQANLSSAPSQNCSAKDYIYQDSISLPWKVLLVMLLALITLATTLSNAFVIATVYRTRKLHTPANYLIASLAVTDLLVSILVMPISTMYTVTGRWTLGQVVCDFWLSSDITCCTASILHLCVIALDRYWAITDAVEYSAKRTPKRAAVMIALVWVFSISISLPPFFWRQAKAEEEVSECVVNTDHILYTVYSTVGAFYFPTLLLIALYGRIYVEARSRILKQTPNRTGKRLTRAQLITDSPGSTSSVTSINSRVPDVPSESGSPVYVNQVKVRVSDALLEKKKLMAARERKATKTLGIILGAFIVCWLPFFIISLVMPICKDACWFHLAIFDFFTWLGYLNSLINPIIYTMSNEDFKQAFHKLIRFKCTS
Text: as §1

[5] = target: T12, norepinephrine transporter (h) (Homo sapiens, UniProt P23975); test: In vitro CEREP profiling, norepinephrine transporter (h) (antagonist radioligand); type: binding; settings: test compound concentration 10 uM
T12 construct: purchased Eurofins Cerep (SafetyScreen44), recognised from the panel format
T12 sequence (P23975 whole entry): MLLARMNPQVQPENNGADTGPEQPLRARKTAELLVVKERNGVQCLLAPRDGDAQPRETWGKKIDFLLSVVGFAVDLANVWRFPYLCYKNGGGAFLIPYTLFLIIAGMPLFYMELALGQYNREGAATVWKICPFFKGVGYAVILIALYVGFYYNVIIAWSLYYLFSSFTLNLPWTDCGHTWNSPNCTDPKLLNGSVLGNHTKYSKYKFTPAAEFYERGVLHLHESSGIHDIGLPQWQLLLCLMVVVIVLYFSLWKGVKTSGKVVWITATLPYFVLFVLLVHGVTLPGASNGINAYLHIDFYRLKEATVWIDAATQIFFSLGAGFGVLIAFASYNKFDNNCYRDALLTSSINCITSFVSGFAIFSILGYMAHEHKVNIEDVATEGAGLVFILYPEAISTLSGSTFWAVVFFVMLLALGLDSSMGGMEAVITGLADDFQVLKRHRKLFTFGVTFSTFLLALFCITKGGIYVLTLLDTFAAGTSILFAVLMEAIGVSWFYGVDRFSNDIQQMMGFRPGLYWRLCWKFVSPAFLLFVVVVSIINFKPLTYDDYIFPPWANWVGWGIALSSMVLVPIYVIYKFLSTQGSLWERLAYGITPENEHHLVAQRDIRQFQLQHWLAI
Text: as §1

[6] = protocol HeLa-ACE2 cytotoxicity

Compound | clint [1] [µL/min/mg] | perc_remaining [1] [%] | t_half [1] [min] | perc_remaining_no_cofactor [1] [%] | clint [2] [uL/min/1E6 cells] | t_half [2] [min] | perc_inhibition: % inhibition of the binding of a ligand specific for each target, 5-HT transporter (h) (antagonist radioligand) (5-HT transporter (h)) [%] | perc_inhibition: % inhibition of control enzyme activity, COX1(h) (COX1(h)) [%] | perc_inhibition (% inhibition of the binding of a ligand specific for each target) (alpha2A (h)) [%] | perc_inhibition (% inhibition of the binding of a ligand specific for each target) (5-HT3 (h)) [%] | perc_inhibition (% inhibition of the binding of a ligand specific for each target) (beta2 (h)) [%] | perc_inhibition (% inhibition of the binding of a ligand specific for each target) (M3 (h)) [%] | perc_inhibition (% inhibition of the binding of a ligand specific for each target) [3] [%] | perc_inhibition: % inhibition of control enzyme activity, acetylcholinesterase (h) (acetylcholinesterase (h)) [%] | perc_inhibition (% inhibition of the binding of a ligand specific for each target) [4] [%] | CC50 (HeLa-ACE2 cells; HeLa-ACE2 cytotoxicity) | perc_max_measured (HeLa-ACE2 cells; HeLa-ACE2 cytotoxicity) | perc_inhibition (% inhibition of the binding of a ligand specific for each target) (D1 (h)) [%] | perc_inhibition (% inhibition of the binding of a ligand specific for each target) (5-HT1B (h)) [%] | perc_inhibition (% inhibition of the binding of a ligand specific for each target) [5] [%] | also measured
CC(C)[C@H](Nc1ncnc2[nH]ccc12)c1ccc2c(c1)S(=O)(=O)CCC2 [ASAP-0008674] | 57.0 | 37.0 | 29.5 | 92.0 | 567.0 | 1.22 | 0 | 85 | 10 | 8 | -1 | 5 | 1 | 12 | 20 | > 20 µM | 118.208% and 98.628% | -4 | 0 | -3 | CC50 (Vero E6/TMPRSS2): > 5 µM; cc10 (Vero E6/TMPRSS2): > 5.0 µM; perc_max_measured (Vero E6/TMPRSS2): 135.379% and 119.601%; perc_min_measured (Vero E6/TMPRSS2): 95.549% and 105.983%; cc10 (HeLa-ACE2 cells; HeLa-ACE2 cytotoxicity): > 20.0 µM; perc_min_measured (HeLa-ACE2 cells; HeLa-ACE2 cytotoxicity): 91.836% and 85.869%
CC(C)[C@H](Nc1ncnc2[nH]c(-c3cnn(C)c3C#N)cc12)c1ccc2c(n1)OCCO2 [ASAP-0010715] | 17.0 | 78.0 | 100.0 | 116.0 | 91.6 | 7.57 | 4 | -39 | 7 | 6 | 3 | -15 | 2 | 15 | 29 | 12.5 µM and > 20 µM | 90.88% and 122.905% and 97.413% | 27 | -11 | 9 | CC50 (Vero E6/TMPRSS2): > 5 µM; cc10 (Vero E6/TMPRSS2): > 5.0 µM; perc_max_measured (Vero E6/TMPRSS2): 109.412%; perc_min_measured (Vero E6/TMPRSS2): 72.414%
CC(C)[C@@H](Nc1ncnc2[nH]c(-c3cnn(C)c3C#N)cc12)c1ccc2c(n1)OCCO2 [ASAP-0010716] | – | – | – | – | 217.0 | 3.19 | 9 | -34 | 9 | 4 | 3 | 1 | -2 | 22 | 32 | > 20 µM | 137.444% and 97.941% | 10 | 4 | 4 | CC50 (Vero E6/TMPRSS2): > 5 µM; cc10 (Vero E6/TMPRSS2): > 5.0 µM; perc_max_measured (Vero E6/TMPRSS2): 116.627%; perc_min_measured (Vero E6/TMPRSS2): 99.207%; cc10 (HeLa-ACE2 cells; HeLa-ACE2 cytotoxicity): > 20.0 µM; perc_min_measured (HeLa-ACE2 cells; HeLa-ACE2 cytotoxicity): 84.699% and 78.982%
CNCc1cc(-c2cc3c(N[C@@H](c4ccc5c(c4)S(=O)(=O)CCC5)C(C)C)ncnc3[nH]2)co1 [ASAP-0011176] | 133.0 | 10.0 | 12.6 | 95.0 | 74.7 | 9.27 | 24 | -6 | 15 | 0 | 6 | 5 | 0 | 10 | 26 | > 20 µM | 120.991% | 14 | 45 | 39 | CC50 (Vero E6/TMPRSS2): > 5 µM; cc10 (Vero E6/TMPRSS2): > 5.0 µM; perc_max_measured (Vero E6/TMPRSS2): 117.999%; perc_min_measured (Vero E6/TMPRSS2): 102.841%; cc10 (HeLa-ACE2 cells; HeLa-ACE2 cytotoxicity): > 20.0 µM; perc_min_measured (HeLa-ACE2 cells; HeLa-ACE2 cytotoxicity): 77.721%; CC50 (HeLa-ACE2 cells; [6]): > 20 µM; cc10 (HeLa-ACE2 cells; [6]): > 20.0 µM; perc_max_measured (HeLa-ACE2 cells; [6]): 106.042%; perc_min_measured (HeLa-ACE2 cells; [6]): 91.552%
Cn1ncc(-c2cc3c(N[C@@H](c4ccc5c(n4)OCCO5)C(C)(C)C)ncnc3[nH]2)c1C#N [ASAP-0011221] | 283.0 | 1.0 | 5.9 | 85.0 | 292.0 | 2.37 | 2 | -14 | 11 | 3 | 4 | -8 | -5 | 14 | 36 | > 20 µM | 97.859% and 124.489% | 9 | 18 | 27 | cc10 (HeLa-ACE2 cells; HeLa-ACE2 cytotoxicity): > 10.0 µM and > 20.0 µM; perc_min_measured (HeLa-ACE2 cells; HeLa-ACE2 cytotoxicity): 51.321% and 74.575%
